The values that follow come from patent US20210220379A1, “PERITONEAL SODIUM-GLUCOSE TRANSPORTER (SGLT) INHIBITORS FOR IMPROVEMENT OF PERITONEAL DIALYSIS” (MOR RESEARCH APPLICATIONS LTD., priority 2017, published 2021).

Test [1] deals with kidney glucose reabsorption. Nature of the test: Glycosuria by urine stick in healthy CD-1 mice after an SGLT inhibitor. The following applies: phlorizin 20 mg/kg single SC injection. It counts as in vivo. Here is the method: (§1) Dapagliflozin (0.1 mg/kg) was given to the mice by oral gavage. Control mice were not given any of the SGLT blockers. Tail blood glucose was tested by glucose test meter immediately before (time 0) and during 2 hours after injection. Glucose levels in the urine were tested by standard urine sticks (Multistix® 10 SG, Siemens Healthcare Diagnostics, Tarrytown, N.Y.).

Test [2] concerns peritoneal glucose transport. Description: Blood glucose in healthy CD-1 mice after intraperitoneal glucose-containing PD fluid. Format: in vivo. As to conditions: inhibitor given 15 min before intraperitoneal PD fluid, results not shown. Here is the method: as §1
The subject of test [3] is peritoneal glucose transport. Description: Renal failure mice: SC phlorizin followed by intraperitoneal PDF. Format: in vivo. The following applies: renal failure CD-1 mice, phlorizin 20 mg/kg SC. Here is the method: (§2) Renal failure in mice and rats was induced by bilateral ureteral ligation, based on the procedure described, for example, in Kim et al. (2015) (Am J Physiol Renal Physio., 308(2):F131-139) and references cited therein. Briefly, mice were anesthetized with an intraperitoneal injection of a cocktail containing ketamine (200 mg/kg body weight) and xylazine (16 mg/kg body weight). After exposure of both the left and right kidneys through flank incision, right and left ureters were ligated completely near the kidney pelvis using a 5-0 silk tie.
A standard commercial PD fluid (Dianeal® 1.5% dextrose), diluted 1:4 in saline (comprising 0.375% glucose) was used. Blood glucose levels were measured by glucometer at indicated time points. Area under the curve (AUC) was calculated for all mice and used to compare the two groups. Concentrations of glucose in the peritoneum fluid measured 30 min after administration of PDF are depicted in FIG. 3C.

Test [4] deals with peritoneal glucose transport. Nature of the test: Renal failure mice: SC phlorizin followed by sodium-free PDF. It counts as in vivo. The following applies: renal failure CD-1 mice; phlorizin 20 mg/kg SC; sodium free PDF 2 ml, 0.375% glucose. Here is the method:
as §2
Dependency of glucose transport on SGLT inhibition during peritoneal dialysis with PDF not containing sodium was assessed.

The test system of test [5] is peritoneal glucose transport. Description: Uremic mice: phlorizin-containing peritoneal dialysis fluid (PPDF) intraperitoneally. It counts as in vivo. As to conditions: uremic CD-1 mice; 2 ml Dianeal 1.5% dextrose with 0.6 μM phlorizin (PPDF) i.p.; compared with separate applications of phlorizin and PDF; P<0.01 vs phlorizin-free PDF. Here is the method:
as §2
Blood glucose levels were measured by glucometer at indicated time points, and area under the curve (AUC) was calculated for all mice and used to compare the two groups (FIG. 5C; P<0.01).

Test [6] concerns glucose absorption from peritoneal fluid. Description: Uremic rat peritoneal dialysis model: PDF with or without phlorizin. As to conditions: uremic SD rats, 120 min dwell. Format: in vivo, Sprague Dawley (SD) rats. Here is the method: as §2
Animal experiments were approved by local Animal Care Committee. Male Sprague Dawley (SD) rats 200-250 gr, we purchased from Envigo RMS (Jerusalem, Israel), allowed to acclimatize for 1 week before the beginning of the experiment. Animals were anesthetized by intramuscular administration of a mixture of ketamine (200 mg/kg body wt) and xylazine (16 mg/kg body wt). Renal failure was induced by bilateral ureteral ligation as described in Materials and Methods. […] After anesthesia temporary catheters were introduced into the peritoneal cavity.
To PDF of both group 100 μl of fluorescein isothiocyanate-dextran was added, average molecular weight 2,000,000 (FITC Dextran −2000, 100 μg/ml, Sigma-Aldrich®, Israel). Dialysate and tail blood samples were obtained during 120 min dwell, every 15 min. Blood glucose level was measured by standard glucometer, dialysate glucose was measured in the chemistry laboratory of the Soroka Medical Center. Dilution of FITC-dextran was detected by florescence of dialysis fluid samples measured with a 96-well fluorimeter (SpectraMax® Paradigm® plate reader, Molecular Devices) at an emission wavelength of 535 nm and an excitation wavelength of 485 nm. Concentrations of unknown samples were calculated from a standard curve by extrapolation in a linear regression model.

Turning to `O=C(CCc1ccc(O)cc1)c1c(O)cc(O)cc1O[C@@H]1O[C@H](CO)[C@@H](O)[C@H](O)[C@H]1O` [phlorizin, phloretin-2′-β-D-glucopyranoside], the Duration of glycosuria entry in test [1] was “more than 2 hours”. Further, the “Glucose levels in urine (glycosuria score, urine stick)” value in test [1] (dapagliflozin 0.1 mg/kg oral gavage) is “significant glycosuria”. Moreover, the “Blood glucose levels vs control group” value in test [2] is given as “significantly lower”; in test [4], “no differences”; in test [6] (20 ml PDF (1.5% Dianeal diluted 1:4) with phlorizin 100 μg/ml, P<0.01), “Significantly lower”. Further, the “Blood glucose levels and AUC vs saline control” value in test [3] (2 ml Dianeal 1.5% dextrose diluted 1:4 (0.375% glucose) i.p., P<0.05) is “mitigated hyperglycemia”. Also, the “Glucose levels in peritoneum fluid vs control” value in test [3] (30 minutes from instillation of PDF) is “significantly elevated”. Besides, the “Reduction of blood glucose levels (AUC)” value in test [5] was “significantly more effective”. In addition, the “FITC-dextran concentration in PDF (dilution) vs control” value in test [6] (PDF with phlorizin 100 μg/ml, P<0.05) is “significant diluted”. Further, the “PDF (dialysate) glucose level vs control group” value in test [6] (PDF with phlorizin 100 μg/ml, p<0.001) was “significant declined”.
